From article PMC6332545, “Biochemical properties and subcellular localization of six members of the HXK family in maize and its metabolic contribution to embryo germination” (BMC Plant Biology, 2019) come the findings set out here.

Common to all, as to format: biochemical
In one assay the target is T1, ZmHXK8 (Zea mays, UniProt B4FB85).
T1 construct: full length, soluble; E. coli BL21-CodonPlus(DE3)-RIL
The assay can be described thus: coupled G6PDH/NADP+ assay, A340. The note with it: 50 mM Glc, 2 mM ATP, 2 mM MgCl2, pH 8.0; product inhibition; PEP/pyruvate kinase listed in the reaction medium; read-out: ADP. The source says: coupled G6PDH/NADP+ assay, A340 on ZmHXK8

The target in assay [1] is T2, ZmHXK5Δ30 (Zea mays, UniProt A0A1D6MAK9).
T2 construct: N-terminal mitochondrial anchor deleted (87 nucleotides after the start codon, first 30 residues); E. coli BL21-CodonPlus(DE3)-RIL
The experiment in a line: coupled G6PDH/NADP+ assay, A340. The note with it: 2 mM MgCl2, pH 8.0. The text has this:
coupled G6PDH/NADP+ assay, A340 on ZmHXK5Δ30

For assay [2], the target named is T3, ZmHXK4Δ30 (Zea mays, UniProt K7VX77).
T3 construct: gene LOC542510; N-terminal mitochondrial anchor deleted (87 nucleotides after the start codon, first 30 residues); E. coli BL21-CodonPlus(DE3)-RIL
The assay can be described thus: coupled G6PDH/NADP+ assay, A340. The note with it: 2 mM MgCl2, pH 8.0. The text has this: coupled G6PDH/NADP+ assay, A340 on ZmHXK4Δ30

The target of assay [3] is T4, ZmHXK6Δ30 (Zea mays, UniProt A0A1D6NCX2).
T4 construct: gene LOC103651223; N-terminal mitochondrial anchor deleted (87 nucleotides after the start codon, first 30 residues); E. coli BL21-CodonPlus(DE3)-RIL
The assay can be described thus: coupled G6PDH/NADP+ assay, A340. The note with it: 2 mM MgCl2, pH 8.0. The text has this:
coupled G6PDH/NADP+ assay, A340 on ZmHXK6Δ30

In a further assay the target is T5, ZmHXK7 (Zea mays, UniProt C0HF79).
T5 construct: full length, soluble; E. coli BL21-CodonPlus(DE3)-RIL
The experiment in a line: coupled G6PDH/NADP+ assay, A340. Particulars: 5 mM Glc, 2 mM ATP, 2 mM MgCl2, pH 8.0; product inhibition; PEP/pyruvate kinase listed in the reaction medium; read-out: ADP. The source says:
coupled G6PDH/NADP+ assay, A340 on ZmHXK7

Assay [4] deals with T4, ZmHXK6Δ30. The assay can be described thus: coupled pyruvate kinase/lactate dehydrogenase NADH assay, A340. The note with it: read-out: Substrate / Mannose; 2 mM ATP, 2 mM MgCl2, pH 8.0. The text has this:
coupled pyruvate kinase/lactate dehydrogenase NADH assay, A340 on ZmHXK6Δ30

Assay [5] has as its target T2, ZmHXK5Δ30. The assay is described as above. The note with it: read-out: Substrate / Mannose; 2 mM ATP, 2 mM MgCl2, pH 8.0. The source says:
coupled pyruvate kinase/lactate dehydrogenase NADH assay, A340 on ZmHXK5Δ30

Assay [6] has as its target T3, ZmHXK4Δ30. The description is as above. The note with it: read-out: Substrate / Mannose; 2 mM ATP, 2 mM MgCl2, pH 8.0. The text has this:
coupled pyruvate kinase/lactate dehydrogenase NADH assay, A340 on ZmHXK4Δ30

Setting [7] is: 5 mM Glc, 2 mM ATP, product inhibition, PEP/pyruvate kinase listed in the reaction medium, read-out: ADP.
[8] abbreviates: read-out: Substrate / ATP, 5 mM Glc.
Setting [9] is: read-out: Substrate / Glucose, 2 mM ATP.

As to `Nc1ncnc2c1ncn2[C@@H]1O[C@H](COP(=O)(O)OP(=O)(O)O)[C@@H](O)[C@H]1O` [ADP], the IC50 at ZmHXK8 came to 3120 ± 1140 µM; on ZmHXK5Δ30 [1] (setting [7]), 690 ± 150 µM; on ZmHXK4Δ30 [2] (setting [7]), 710 ± 150 µM; on ZmHXK6Δ30 [3] (setting [7]), 720 ± 140 µM; on ZmHXK7 it was 6470 ± 1140 µM.
In the case of `Nc1ncnc2c1ncn2[C@@H]1O[C@H](COP(=O)(O)OP(=O)(O)OP(=O)(O)O)[C@@H](O)[C@H]1O` [ATP], the Km at ZmHXK5Δ30 [1] (setting [8]) is 136 ± 11.5 µM; at ZmHXK4Δ30 [2] (setting [8]) it was 135 ± 25.7 µM; at ZmHXK6Δ30 [3] (setting [8]), 199 ± 12.8 µM.
For `OC[C@H]1OC(O)[C@H](O)[C@@H](O)[C@@H]1O` (some centres unmarked) [glucose], the values for the Km on ZmHXK5Δ30 [1] (setting [9]), on ZmHXK4Δ30 [2] (setting [9]) and at ZmHXK6Δ30 [3] (setting [9]) were 137 ± 20 µM, 196 ± 32 µM and 65.9 ± 15.2 µM, respectively.
With `OC[C@H]1OC(O)[C@@H](O)[C@@H](O)[C@@H]1O` (some centres unmarked) [mannose], the Km turned out to be 48.9 ± 1.06 µM on ZmHXK6Δ30 [4], 120 ± 33.3 µM at ZmHXK5Δ30 [5] and 139 ± 22.4 µM at ZmHXK4Δ30 [6].
